Data set [1] in a line: Metabolic stability in human liver microsomes. The data set is classed as in vitro ADME. To be noted: 1 μM compound, 0.5 mg/mL protein, projected hepatic clearance, well-stirred model. Here is the method: Metabolic stability of compounds was evaluated in human liver microsomes (from Corning or XenoTech, LLC) using a 96-well plate assay format. Compounds were incubated at 37° C. at 1 μM final concentration in the microsomal matrix (0.5 mg/mL total protein) in the presence or absence of NADPH cofactor. An NADPH regenerating system, comprised of NADP, MgCl2, isocitric acid, and isocitrate dehydrogenase, was used in the assay. Enzymatic reactions were conducted for 0, 5, 10, 20, 30, or 60 min before termination by addition of acetonitrile containing tolbutamide and labetalol internal standards (100 ng/mL). After shaking for 10 min, plates were subjected to centrifugation (4000 rpm at 4° C.) for 20 min and supernatants were mixed 1:3 with HPLC grade water. Samples were analyzed by LC-MS/MS using appropriate MRM transitions for each analyte and internal standard (IS). Analyte/IS peak area ratios were used to determine percent compound remaining at each time point. Intrinsic clearance (Clint; expressed as mL·min^−1·mg^−1) was calculated from the first order elimination constant (k, min^−1) of test article decay and the volume of the incubation. These values were scaled to intrinsic organ clearance (Clint) using human specific scaling factors (48.8 mg microsomal protein per g liver; 25.7 g liver per kg body weight). Organ Clint was subsequently converted to hepatic clearance (CLhep, mL·min-1·kg-1) using the well-stirred model of hepatic elimination, where Qh is human hepatic blood flow (20.7 mL·min-1·kg-1).
CLhep is the projected human clearance in the liver based on the above in vitro assay. A lower value is indicative of less compound being removed by the liver.
In general terms: Microsomes from liver hold many membrane-bound enzymes, among them those of drug oxidation.

A further data set addresses MDR1 (P-glycoprotein) (Homo sapiens (Human), UniProt P08183). Kind of data set: MDR1-MDCK permeability, bidirectional assay. The data set is classed as in vitro ADME. To be noted: dog, MDR1-MDCK cells, monolayer efflux ratio, pH 7.4, read-out: MDR1 ER. Here is the method:
The blood brain barrier (BBB) separates circulating blood from the extracellular fluid of the central nervous system (CNS). The passive membrane permeability (Papp) and MDR1 (P-glycoprotein) substrate efflux potential were determined using the MDR1-MDCK cell line as an in vitro model of the effective permeability of a compound through the BBB. A bidirectional assay was conducted in pre-plated MDR1-MDCK cells using a 12 or 96-well plate in the absence or presence of MDR1 inhibitor (GF120918 or Valspodar). Assays were run in duplicate in transport buffer (HBSS, pH 7.4) for 90 or 120 min (minutes) at 37° C., using a test article concentration of 1 μM. Monolayer integrity was confirmed using Lucifer yellow, and appropriate positive controls for passive permeability and MDR1 transport were included in each experiment. Following incubation, samples from donor and receiver compartments were removed and quenched with acetonitrile containing an appropriate internal standard (IS). Protein was precipitated by centrifugation for 10 min at 3220 g, and supernatants were diluted in ultra-pure water (if necessary) prior to analysis by LC-MS/MS using appropriate MRM transitions for analytes and IS. Papp (apparent permeability expressed in cm/sec [centimeter/second]) values were calculated according to the following equation:
[formula] where VR is the solution volume in the receiver chamber (apical or basolateral side), Area is the surface area for the insert membrane), Time is incubation time expressed in seconds, CR is the peak area ratio (analyte/IS) in the receiver chamber, CA is the average of the initial and final concentrations in the donor chamber, and Co is the initial peak area ratio in the donor chamber. Papp was determined in both the apical to basolateral (A→B) and basolateral to apical (B→A) directions.
Monolayer efflux ratios (ER) were derived using the following equation: […]

A further data set addresses LRRK2 G2019S enzyme (Homo sapiens (Human), UniProt Q5S007, G2019S). Put plainly: LRRK2 G2019S TR-FRET biochemical assay (LRRKtide substrate). To be noted: 134 μM ATP. In short, it runs like this: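 Kinase and LRRKtide substrate were preincubated with compound 20 minutes at 23° C, then ATP was added and the reaction ran 60 minutes at 23° C. Detection used 2 nM antibody with 10 mM EDTA in TR-FRET dilution buffer, 60 minutes at 23° C, read by TR-FRET.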

Usually IC50 stands for the point on the concentration scale where inhibition reaches its midpoint. A lower IC50 goes with higher potency.

Where “and” joins values, the source holds several entries; their conditions need not be identical. Identical values can stand only once.

LRRK2 G2019S enzyme, sequence (Q5S007 whole entry G2019S): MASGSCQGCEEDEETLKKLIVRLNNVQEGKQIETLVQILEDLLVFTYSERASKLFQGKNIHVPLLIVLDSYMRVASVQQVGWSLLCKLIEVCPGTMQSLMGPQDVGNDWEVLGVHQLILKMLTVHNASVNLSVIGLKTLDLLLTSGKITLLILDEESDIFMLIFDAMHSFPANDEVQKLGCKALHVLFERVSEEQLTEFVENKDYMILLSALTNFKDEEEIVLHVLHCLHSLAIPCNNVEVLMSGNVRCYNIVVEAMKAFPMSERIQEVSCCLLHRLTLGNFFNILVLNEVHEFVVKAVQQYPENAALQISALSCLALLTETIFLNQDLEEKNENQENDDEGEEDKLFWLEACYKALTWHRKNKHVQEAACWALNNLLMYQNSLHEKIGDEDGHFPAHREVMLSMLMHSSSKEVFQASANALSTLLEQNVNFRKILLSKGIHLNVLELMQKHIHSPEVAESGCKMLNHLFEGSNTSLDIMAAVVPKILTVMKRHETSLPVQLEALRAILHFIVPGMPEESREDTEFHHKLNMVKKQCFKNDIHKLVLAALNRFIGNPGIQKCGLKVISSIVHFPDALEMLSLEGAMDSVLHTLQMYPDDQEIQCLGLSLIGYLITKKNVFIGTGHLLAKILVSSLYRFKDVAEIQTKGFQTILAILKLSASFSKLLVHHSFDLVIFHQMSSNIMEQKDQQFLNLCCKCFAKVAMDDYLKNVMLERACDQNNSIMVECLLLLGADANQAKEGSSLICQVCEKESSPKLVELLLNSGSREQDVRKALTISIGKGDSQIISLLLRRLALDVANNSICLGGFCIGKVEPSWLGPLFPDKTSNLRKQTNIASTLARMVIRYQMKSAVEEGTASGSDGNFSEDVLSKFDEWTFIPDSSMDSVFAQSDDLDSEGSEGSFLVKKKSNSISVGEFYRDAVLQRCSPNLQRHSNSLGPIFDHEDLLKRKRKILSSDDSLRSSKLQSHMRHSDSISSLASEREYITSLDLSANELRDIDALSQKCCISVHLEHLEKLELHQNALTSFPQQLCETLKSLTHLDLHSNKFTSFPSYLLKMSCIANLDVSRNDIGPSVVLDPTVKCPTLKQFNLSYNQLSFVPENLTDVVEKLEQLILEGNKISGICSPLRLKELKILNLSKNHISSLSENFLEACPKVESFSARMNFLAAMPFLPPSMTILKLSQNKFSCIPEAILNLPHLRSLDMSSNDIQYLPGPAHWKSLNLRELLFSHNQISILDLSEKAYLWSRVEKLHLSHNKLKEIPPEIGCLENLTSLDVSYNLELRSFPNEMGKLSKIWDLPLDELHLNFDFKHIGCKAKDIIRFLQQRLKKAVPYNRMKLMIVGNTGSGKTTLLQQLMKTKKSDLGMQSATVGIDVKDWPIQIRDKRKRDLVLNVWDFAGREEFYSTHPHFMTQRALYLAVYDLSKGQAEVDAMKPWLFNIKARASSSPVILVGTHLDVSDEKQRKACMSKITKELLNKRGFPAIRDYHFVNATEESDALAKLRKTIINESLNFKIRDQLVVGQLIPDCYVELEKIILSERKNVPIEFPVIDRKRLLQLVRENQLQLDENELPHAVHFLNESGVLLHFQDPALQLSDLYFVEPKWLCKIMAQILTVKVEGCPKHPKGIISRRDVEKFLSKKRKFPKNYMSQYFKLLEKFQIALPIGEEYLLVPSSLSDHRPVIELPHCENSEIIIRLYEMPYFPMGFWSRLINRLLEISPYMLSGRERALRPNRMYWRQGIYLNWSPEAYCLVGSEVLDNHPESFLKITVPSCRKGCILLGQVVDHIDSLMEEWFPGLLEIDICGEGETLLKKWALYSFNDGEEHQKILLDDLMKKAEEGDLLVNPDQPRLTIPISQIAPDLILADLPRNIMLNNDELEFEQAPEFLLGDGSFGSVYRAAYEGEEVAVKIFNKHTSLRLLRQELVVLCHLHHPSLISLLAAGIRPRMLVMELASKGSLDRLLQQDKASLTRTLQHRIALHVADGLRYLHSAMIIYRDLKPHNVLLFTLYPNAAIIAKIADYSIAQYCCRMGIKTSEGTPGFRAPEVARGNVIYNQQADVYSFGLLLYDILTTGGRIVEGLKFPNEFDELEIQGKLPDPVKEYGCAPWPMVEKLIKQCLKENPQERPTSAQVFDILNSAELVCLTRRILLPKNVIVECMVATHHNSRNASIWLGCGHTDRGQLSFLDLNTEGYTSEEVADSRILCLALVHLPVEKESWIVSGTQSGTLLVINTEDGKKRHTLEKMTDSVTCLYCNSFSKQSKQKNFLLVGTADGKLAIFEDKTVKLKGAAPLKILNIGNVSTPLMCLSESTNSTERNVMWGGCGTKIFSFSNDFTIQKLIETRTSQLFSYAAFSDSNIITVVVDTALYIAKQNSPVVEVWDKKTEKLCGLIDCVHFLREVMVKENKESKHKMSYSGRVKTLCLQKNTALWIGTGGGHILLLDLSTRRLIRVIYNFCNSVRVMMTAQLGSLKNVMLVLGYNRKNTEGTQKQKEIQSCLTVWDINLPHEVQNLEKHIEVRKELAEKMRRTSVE
MDR1 (P-glycoprotein), sequence (P08183 whole entry): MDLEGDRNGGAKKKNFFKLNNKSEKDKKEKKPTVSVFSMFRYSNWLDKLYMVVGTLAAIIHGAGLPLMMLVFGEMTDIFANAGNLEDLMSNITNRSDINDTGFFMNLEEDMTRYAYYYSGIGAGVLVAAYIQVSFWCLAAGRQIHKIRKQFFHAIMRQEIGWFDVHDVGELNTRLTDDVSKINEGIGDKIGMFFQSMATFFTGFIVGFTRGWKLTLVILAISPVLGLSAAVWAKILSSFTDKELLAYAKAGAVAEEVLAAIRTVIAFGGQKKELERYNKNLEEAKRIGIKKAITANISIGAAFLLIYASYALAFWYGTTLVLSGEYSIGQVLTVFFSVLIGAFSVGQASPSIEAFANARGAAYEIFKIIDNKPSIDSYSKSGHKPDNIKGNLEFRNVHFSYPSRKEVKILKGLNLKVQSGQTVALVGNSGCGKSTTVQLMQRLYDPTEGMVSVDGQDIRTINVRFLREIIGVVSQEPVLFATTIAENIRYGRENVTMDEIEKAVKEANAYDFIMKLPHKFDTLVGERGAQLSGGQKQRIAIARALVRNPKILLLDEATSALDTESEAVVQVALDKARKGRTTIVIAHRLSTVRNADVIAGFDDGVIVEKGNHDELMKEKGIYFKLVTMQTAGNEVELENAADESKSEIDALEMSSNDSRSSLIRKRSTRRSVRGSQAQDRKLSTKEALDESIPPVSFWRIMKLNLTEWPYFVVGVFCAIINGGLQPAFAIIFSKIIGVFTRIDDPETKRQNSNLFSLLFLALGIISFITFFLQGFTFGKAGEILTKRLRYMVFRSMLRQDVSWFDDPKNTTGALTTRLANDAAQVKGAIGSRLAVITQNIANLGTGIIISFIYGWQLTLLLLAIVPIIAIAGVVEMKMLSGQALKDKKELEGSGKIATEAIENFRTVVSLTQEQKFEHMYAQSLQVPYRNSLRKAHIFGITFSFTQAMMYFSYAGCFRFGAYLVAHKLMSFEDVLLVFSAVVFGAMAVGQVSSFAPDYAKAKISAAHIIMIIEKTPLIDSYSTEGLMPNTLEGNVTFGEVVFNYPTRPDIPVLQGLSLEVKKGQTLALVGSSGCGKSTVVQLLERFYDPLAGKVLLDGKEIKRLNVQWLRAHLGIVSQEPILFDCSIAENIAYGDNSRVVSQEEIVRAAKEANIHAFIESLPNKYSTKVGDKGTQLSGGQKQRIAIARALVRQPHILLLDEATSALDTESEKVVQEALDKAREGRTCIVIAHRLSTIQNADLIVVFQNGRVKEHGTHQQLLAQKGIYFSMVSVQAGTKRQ

Consider `CCNc1nc(Nc2cnn(C3CC(C#N)C3)c2C)ncc1C(F)(F)F` (centres unmarked) [Compound 27], for which, in data set [1], the “Human liver microsomes CLhep” value is 7.81 mL/min/kg. In addition, the efflux ratio at 1 μM at MDR1 (P-glycoprotein) stood at 0.88.

Turning to `CNc1nc(Nc2cn(C(C)(C)c3ncn(C)n3)nc2C)ncc1C(F)(F)F` [Compound 218], the “Human liver microsomes CLhep” value in data set [1] is 0 mL/min/kg. On LRRK2 G2019S enzyme, the IC50 is < 30 nM and 5.91 nM. Besides, on MDR1 (P-glycoprotein), the efflux ratio at 1 μM is 86.

Turning to `CCNc1nc(Nc2cc(C(C)(C)n3nccn3)nn2C2CC2)ncc1C(F)(F)F` [Compound 78, N2-[2-cyclopropyl-5-[1-methyl-1-(triazol-2-yl)ethyl]pyrazol-3-yl]-N4-ethyl-5-(trifluoromethyl)pyrimidine-2,4-diamine], the “Human liver microsomes CLhep” value in data set [1] came out at 4.81 mL/min/kg. Besides, on LRRK2 G2019S enzyme, the IC50 is < 30 nM and 3.69 nM. Moreover, the efflux ratio at 1 μM at MDR1 (P-glycoprotein) was found to be 2.

Turning to `[2H]C([2H])([2H])n1nc(C(C)(C)n2nccn2)cc1Nc1ncc(C(F)(F)F)c(NCC)n1` [Compound 34, N4-Ethyl-N2-[1-(^2H3)methyl-3-[2-(2H-1,2,3-triazol-2-yl)propan-2-yl]-1H-pyrazol-5-yl]-5-(trifluoromethyl)pyrimidine-2,4-diamine], in data set [1], the “Human liver microsomes CLhep” value was 0.75 mL/min/kg. Moreover, the IC50 against LRRK2 G2019S enzyme was < 30 nM and 2.31 nM. Besides, the efflux ratio at 1 μM on MDR1 (P-glycoprotein) is 4.8.

As to `CCNc1nc(Nc2cc(C3(C)CCn4ncnc43)nn2C2CC2)ncc1C(F)(F)F` (single isomer, unassigned) [Compound 172], in data set [1], the “Human liver microsomes CLhep” value turned out to be 19.9 mL/min/kg. In addition, on LRRK2 G2019S enzyme, the IC50 is < 30 nM and 1.47 nM. Besides, the efflux ratio at 1 μM at MDR1 (P-glycoprotein) was 42.

Turning to `[2H]C([2H])([2H])n1nc(C(C)(C)n2nccn2)cc1Nc1ncc(C(F)(F)F)c(NC2CC2)n1` [Compound 68], the “Human liver microsomes CLhep” value in data set [1] is recorded as 3.18 mL/min/kg. On LRRK2 G2019S enzyme, the IC50 was < 30 nM and 2.23 nM. For the same compound, the efflux ratio at 1 μM on MDR1 (P-glycoprotein) came out at 4.01.

Turning to `CCNc1nc(Nc2cn(C(C)(C)C#N)nc2C2CC2)ncc1C(F)(F)F` [Compound 118], in data set [1], the “Human liver microsomes CLhep” value came out at 7.81 mL/min/kg. The IC50 against LRRK2 G2019S enzyme is < 30 nM and 1.55 nM. Further, on MDR1 (P-glycoprotein), the efflux ratio at 1 μM was found to be 0.83.

For the origin of these results see patent publication US9932325B2 (Denali Therapeutics Inc., priority 2015, dated 2018).
